Data set [1] relates to Staphylococcus aureus ATCC 6538 P LRP 39. Nature of the data set: Bacteriostatic power in liquid medium (MIC). In kind it is cell-based. The conditions noted are these: Staphylococcus aureus, ATCC6538, read-out: Minimum inhibiting concentration. In outline:
(§1)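 Reported figure: the lowest concentration that inhibits bacterial growth (bacteriostatic MIC). Organisms tested include aerobes and anaerobes of both Gram classes.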

The subject of data set [2] is Streptococcus pneumoniae ATCC 6303 LRP 35. Nature of the data set: Bacteriostatic power in liquid medium (MIC). In kind it is cell-based. The conditions noted are these: Streptococcus pneumoniae, ATCC6303, read-out: Minimum inhibiting concentration. In a few lines: as §1
The subject of data set [3] is Corynebacterium diphteriae LRP 24. Nature of the data set: Bacteriostatic power in liquid medium (MIC). Format: cell-based. The conditions noted are these: Corynebacterium, LRP24, read-out: Minimum inhibiting concentration. In outline:
as §1

Data set [4] concerns Streptococcus pyogenes ATCC 8668 LRP 34. Nature of the data set: Bacteriostatic power in liquid medium (MIC). Format: cell-based. As to conditions: Streptococcus pyogenes, ATCC8668, read-out: Minimum inhibiting concentration. In a few lines: as §1
Data set [5] concerns Streptococcus faecalis subs. zymogenes ATCC 12958 LRP 61. The data set is described as follows: Bacteriostatic power in liquid medium (MIC). Format: cell-based. The conditions noted are these: Enterococcus faecalis, ATCC12958, read-out: Minimum inhibiting concentration. In a few lines:
as §1

Data set [6] is described as follows: Serum concentrations in the rat after oral administration. In kind it is in vivo. The conditions noted are these: 100 mg/kg per os. The method, then:
administration of 100 mg/kg per os. The values, at the
several sampling times, correspond to mcg of product per ml of serum*.

Values after ≈ are worked out from the molar mass of the structure shown. Values joined by “and” are separate entries in the source; they are usually repeats but may differ in a detail not shown here. Equal entries are not always repeated.

On to `CC[C@H]1OC(=O)[C@H](C)[C@@H](O[C@H]2C[C@@](C)(OC)[C@@H](O)[C@H](C)O2)[C@H](C)[C@@H](O[C@@H]2O[C@H](C)C[C@H](N(C)C)[C@H]2O)[C@](C)(O)C[C@](C)(F)C(=O)[C@H](C)[C@@H](O)[C@]1(C)O` [P-80206, (8S)-8-fluoroerythromycin A], for which the MIC turned out to be 0.195 µg/mL (≈ 0.259 µM) in data set [1]; 0.049 µg/mL (≈ 0.0652 µM) in data set [2]; 0.012 µg/mL (≈ 0.016 µM) in data set [3]; 0.097 µg/mL (≈ 0.129 µM) in data set [4]; 0.39 µg/mL (≈ 0.519 µM) in data set [5]. The “Serum concentration, individual rat” value in data set [6] (0.5 hours, 30 min) was 0.078 mcg of product per ml of serum and 0.198 mcg of product per ml of serum and 0.630 mcg of product per ml of serum and 0.487 mcg of product per ml of serum and 1.105 mcg of product per ml of serum and 1.333 mcg of product per ml of serum; in data set [6] (1 hour, 60 min), 8.505 mcg of product per ml of serum and 0.880 mcg of product per ml of serum and 1.273 mcg of product per ml of serum and 1.251 mcg of product per ml of serum and 1.714 mcg of product per ml of serum and 0.531 mcg of product per ml of serum; in data set [6] (2 hours, 120 min), 3.712 mcg of product per ml of serum and 6.516 mcg of product per ml of serum and 3.510 mcg of product per ml of serum and 6.907 mcg of product per ml of serum and 6.601 mcg of product per ml of serum and 7.195 mcg of product per ml of serum; in data set [6] (4 hours, 240 min), 1.792 mcg of product per ml of serum and 2.134 mcg of product per ml of serum and 1.270 mcg of product per ml of serum and 2.817 mcg of product per ml of serum and 2.362 mcg of product per ml of serum and 2.115 mcg of product per ml of serum; in data set [6] (6 hours, 360 min), 0.867 mcg of product per ml of serum and 0.393 mcg of product per ml of serum and 1.192 mcg of product per ml of serum and 1.792 mcg of product per ml of serum and 1.620 mcg of product per ml of serum and 1.147 mcg of product per ml of serum. Moreover, the concentration at 0.5 h in data set [6] (rat, in vivo, po, 100 mg/kg, 0.5 hours, read-out: Serum concentration, average) stood at 638 ng/mL. Further, the concentration at 1 h in data set [6] (rat, in vivo, po, 100 mg/kg, 1 hour, read-out: Serum concentration, average) amounted to 2360 ng/mL. The compound further yielded a concentration at 2 h in data set [6] (rat, in vivo, po, 100 mg/kg, 2 hours) of 5740 ng/mL. In addition, the concentration at 4 h in data set [6] (rat, in vivo, po, 100 mg/kg, 4 hours, read-out: Serum concentration, average) was 2080 ng/mL. In data set [6] (rat, in vivo, po, 100 mg/kg, 6 hours, read-out: Serum concentration, average), the concentration at 6 h is 1170 ng/mL.

Values taken from patent US4439426A, “Semisynthetic macrolidic antibiotics, intermediate compounds for their preparation and related pharmaceutical compositions containing them” (priority 1981, dated 1984).
